Assay results as given in article PMC10303384, “The Effect of Terbinafine and Its Ionic Salts on Certain Fungal Plant Pathogens” (Molecules, 2023).

Tests used:
Valsa malicola (V. mali) = assay: In vitro fungicidal activity, mycelial (hyphae) growth inhibition on PDA; type: cell-based
[1] = test system: Botrytis cinerea (B. cinerea); assay: as above; type: cell-based
[2] = test system: Pyricularia oryzae (P. oryzae); assay: microbe, parasite or virus in culture; type: cell-based
[3] = test system: Phomopsis capsici (P. capsica); assay: In vitro fungicidal activity, mycelial (hyphae) growth inhibition on PDA; type: cell-based; details: mean ± SD of three replicates
[4] = test system: Alternaria solani (A. solani); assay: as above; type: cell-based
[5] = test system: Rhizoctonia solani (R. solani); assay: microbe, parasite or virus in culture; type: cell-based
[6] = test system: Fusarium graminearum (F. graminearum); assay: microbe, parasite or virus in culture; type: cell-based
[7] = test system: Pythium aphanidermatum (P. aphanidermatum); assay: In vitro fungicidal activity, mycelial (hyphae) growth inhibition on PDA; type: cell-based; details: mean ± SD of three replicates
[8] = Solubility classification in representative solvents (Vogel protocol); type: physicochemical; details: 25 °C, test amount 0.1 g
Description: This investigation details how to determine the solubility of terbinafine and its salts, guided by the experimental protocol in Vogel’s Textbook of Practical Organic Chemistry. Based on the Snyder polarity index values of the representative solvents, each solvent was tested for its ability to dissolve the target analytes. The solubility data was classified into three categories based on the observed extent of dissolution. […] The experimental procedures were performed at 25 °C and under ambient pressure.

[9] = Solubility of saturated solutions by HPLC at 25 °C; type: physicochemical
Description: The filtrate was then passed through a 0.22 μm nylon membrane filter and subjected to HPLC analysis. Based on Wang’s report about the chromatographic parameters, modifications to the mobile phase ratio were made. The replicability of the results was ensured by performing each measurement in triplicate.

[10] = test system: B. cinerea on cherry tomatoes; assay: In vivo antifungal bioassay on cherry tomatoes; parameters: species or system Botrytis cinerea; details: 20 mg/L
[11] = Critical micelle concentration by electrical conductivity; details: 25 °C
Description: The critical micelle concentrations (CMCs) of the TISs were measured using electrical conductivity at 25 °C, as shown in Figure S16.
The critical micelle concentrations (CMCs) of all the TISs were determined using an electrical conductivity meter (Leica Desktop Conductivity Meter DDSJ-308F, Shanghai Oustor Industrial Co., Ltd. Shanghai, China).

[12] = Surface tension of saturated aqueous solutions, Du Noüy ring method; details: 25 °C
Description: This method involved adjusting the stage positioning of the solvent container such that a platinum ring could be immersed below the liquid interface or pulled through the meniscus. […] The maximum force was recorded as the surface tension of the solvent. To ensure accuracy, the platinum ring was thoroughly cleaned between each measurement through rinsing with double-distilled water and wiping it dry. The surface tension determination was performed in quadruplicate.

[13] = 50 mg/L, mean ± SD of three replicates

Structure (SMILES): CN(C/C=C/C#CC(C)(C)C)Cc1cccc2ccccc12.O=C(O)c1ccco1 [TIS 5, (E)-N,6,6-trimethyl-N-(naphthalen-1-ylmethyl)hept-2-en-4-yn-1-aminium furan-2-carboxylate]
- Inhibition Rate at 50 mg/L (%) V. m (Valsa malicola (V. mali); [13]): 100 ± 0%
- EC50 (mg/L) (Valsa malicola (V. mali); V. mali): 1.49 mg/L
- improvement of antifungal activity compared to terbinafine (Valsa malicola (V. mali); V. mali, from EC50): 14%
- EC50 (Valsa malicola (V. mali); V. mali, read-out: EC50 (μmol/L)): 3.69 µmol/L
- Inhibition Rate at 50 mg/L (%) B. c [1, 13]: 100 ± 0%
- EC50 (mg/L) ([1]; B. cinerea): 0.13 mg/L
- EC50 ([1]; B. cinerea, read-out: EC50 (μmol/L)): 0.33 µmol/L
- Inhibition Rate at 50 mg/L (%) P. o [2, 13]: 96.68 ± 0.42%
- EC50 (mg/L) ([2]; P. oryzae): 0.49 mg/L
- EC50 ([2]; P. oryzae, read-out: EC50): 1220 nM
- Inhibition Rate at 50 mg/L (%) P. c [3]: 55.88 ± 1.89%
- Inhibition Rate at 50 mg/L (%) A. s [4, 13]: 98.67 ± 0.61%
- EC50 (mg/L) ([4]; A. solani): 0.08 mg/L
- improvement of antifungal activity compared to terbinafine ([4]; A. solani, from EC50): 20%
- EC50 ([4]; A. solani, read-out: EC50 (μmol/L)): 0.2 µmol/L
- EC50 (mg/L) [5]: 2.43 mg/L
- Inhibition Rate at 50 mg/L (%) R. s ([5]; 50 mg/L): 82.02 ± 0.91%
- EC50 ([5]; read-out: EC50): 6020 nM
- Inhibition Rate at 50 mg/L (%) F. g [6, 13]: 100 ± 0%
- EC50 (mg/L) ([6]; F. graminearum): 0.11 mg/L
- EC50 ([6]; F. graminearum, read-out: EC50): 270 nM
- Inhibition Rate at 50 mg/L (%) P. a [7]: 71.96 ± 2.68%
- Solubility in n-Hexane ([8]; Snyder polarity index 0.0): − (“−” means insoluble in a 3 mL solvent, poor solubility)
- Solubility in Toluene ([8]; Snyder polarity index 2.3): + (“+” means soluble in a 1 mL solvent, good solubility)
- Solubility in Chloroform ([8]; Snyder polarity index 4.1): + (“+” means soluble in a 1 mL solvent, good solubility)
- Solubility in Ethyl acetate ([8]; Snyder polarity index 4.3): + (“+” means soluble in a 1 mL solvent, good solubility)
- Solubility in Isopropanol ([8]; Snyder polarity index 4.3): + (“+” means soluble in a 1 mL solvent, good solubility)
- Solubility in Acetone ([8]; Snyder polarity index 5.1): + (“+” means soluble in a 1 mL solvent, good solubility)
- Solubility in Acetonitrile ([8]; Snyder polarity index 6.2): + (“+” means soluble in a 1 mL solvent, good solubility)
- Solubility in DMSO ([8]; Snyder polarity index 6.5): + (“+” means soluble in a 1 mL solvent, good solubility)
- Solubility in Methanol ([8]; Snyder polarity index 6.6): + (“+” means soluble in a 1 mL solvent, good solubility)
- Solubility in Water ([8]; Snyder polarity index 9.0): − (“−” means insoluble in a 3 mL solvent, poor solubility)
- Solubility, n-Hexane ([9]; Table S1): 1.02 µM
- water solubility ([9]; water): 5880 µM
- Diameter of infection (cm) 4 days ([10]; 4 days after treatment): 0.61 cm
- Diameter of infection (cm) 7 days ([10]; 7 days after treatment): 0.74 cm
- critical micelle concentration (CMC) [11]: 0.66 mmol/L
- surface tension of the saturated aqueous solution [12]: 51.26 mN·m^−1
